Experiments:
[1] = test system: HCV Con1 subgenomic replicon (GS4.1 cells); assay: HCV replicon assay (NS5A ELISA, 72 hrs); format: cell-based; details: Hepatitis C virus
Method: Huh-7 cells containing HCV Con1 subgenomic replicon (GS4.1 cells) were grown in Dulbecco's Modified Eagle Medium (DMEM) supplemented with 10% fetal bovine serum (FBS), 2 mM L-glutamine, 110 mg/L sodium pyruvate, 1× non-essential amino acids, 100 U/mL penicillin-streptomycin, and 0.5 mg/mL G418 (Invitrogen). For dose-response testing, the cells were seeded in 96-well plates at 7.5×10^3 cells/well in a volume of 50 μL, and incubated at 37° C./5% CO2. Three hours after plating, 50 μL often 2-fold serial dilutions of compounds (highest concentration, 75 μM) were added, and cell cultures were incubated at 37° C./5% CO2 in the presence of 0.5% DMSO. Alternatively, compounds were tested at a single concentration of 15 μM. In all cases, Huh-7 cells lacking the HCV replicon served as negative control. The cells were incubated in the presence of compounds for 72 hrs after which they were monitored for expression of the NS5A protein by enzyme-linked immunosorbent assay (ELISA). For this, the plates were then fixed for 1 min with acetone/methanol (1:1, v/v), washed twice with phosphate-buffered saline (PBS), 0.1% Tween 20, blocked for 1 hr at room temperature with TNE buffer containing 10% FBS and then incubated for 2 hr at 37° C. with the anti-NS5A mouse monoclonal antibody A-236 (ViroGen) diluted in the same buffer. After washing three times with PBS, 0.1% Tween 20, the cells were incubated 1 hr at 37° C. with anti-mouse immunoglobulin G-peroxidase conjugate in TNE, 10% FBS. After washing as described above, the reaction was developed with O-phenylenediamine (Zymed). The reaction was stopped after 30 min with 2 NH2SO4, and absorbance was read at 492 nm using Sunrise Tecan spectrophotometer. EC50 values were determined from the % inhibition versus concentration data using a sigmoidal non-linear regression analysis based on four parameters with Tecan Magellan software.

[2] = test system: HCV genotype 1b Con1 strain subgenomic luciferase replicon (Zluc); assay: Luciferase replicon assay, genotype 1b; format: cell-based; details: Hepatitis C virus
Method: (§1) The HCV luciferase replicon assay measures the ability of a test compound to inhibit HCV replication in cell culture after 3 days of treatment in a human hepatoma cell line (Huh-7) bearing an HCV replicon containing a luciferase-neomycin phosphotransferase fusion gene. The inhibition of HCV replication was measured by quantification of luciferase protein expression. Briefly, Huh-7 cells containing either the HCV genotype 1a H77 strain or genotype 1b Con1 strain subgenomic luciferase replicon (H1a-luc or Zluc, respectively) were grown in DMEM containing glucose, L-glutamine and sodium pyruvate, 10% fetal bovine serum (FBS), 100 IU/mL penicillin, 100 μg/mL streptomycin, 2 mM GlutaMAX, non-essential amino acids and 0.25 (H1a-luc) or 0.5 (Zluc) mg/mL G418. GlutaMAX was obtained from Invitrogen, Corp.; all other media reagents were obtained from Mediatech, Inc. For dose-response testing, the cells were seeded in 96-well plates at 1×10^4 (H1a-luc) or 7.5×10^3 (Zluc) cells/well in a volume of 50 μL, and incubated at 37° C./5% CO2. Three hours after plating, 50 μL of ten 5-fold serial dilutions of compound were added, and cell cultures were incubated at 37° C./5% CO2 for 72 hours. In all cases, Huh-7 cells lacking the HCV replicon served as negative control. To assess luciferase expression, the media/compound was removed from the plates and ONE-glo Luciferase assay reagent (Promega) was added to each well. The assay plates were shaken for 3 minutes at room temperature and luciferase activity for each well was measured with a 1 sec read time on the Victor^3V multilabel counter using a 700 nm cut-off filter (Perkin Elmer). EC50 values were calculated from dose response curves from the resulting best-fit equations determined by Microsoft Excel and XLfit 4.1 software.

[3] = test system: HCV genotype 3a NS5A within the 1b-replicon; assay: Luciferase replicon assay, NS5A-intergenotypic stable cell line genotype 3a; format: cell-based; details: Hepatitis C virus, read-out: EC50 3a
Excerpt: (§2) The nucleotide sequences of the NS5A region of genotype 2a (GenBank Accession # AB047639), genotype 3a (GenBank Accession #D17763), and genotype 4a (GenBank Accession# DQ418788) were synthesized by an outside vendor. The NS5A region of each of these genotypes included the first 11 amino acids of the protease recognition sequence of genotype 1b, as well as the last 10 amino acids of genotype 1b. The NS5A gene cassettes were excised with site specific restriction endonucleases and ligated into a ZS11-luciferase genotype 1b backbone (backbone contains the genotype 1b NS3 protease, NS4a, NS4b, and NS5b coding regions) with similarly cut restriction enzyme sites. Thus, the newly constructed plasmid contains a genotype 2a-, 3a- or 4a-specific NS5A gene within the 1b-replicon.
(§3) These new intergenotypic plasmids were used to establish stable cell lines. RNA was generated from the NS5A intergenotypic plasmids and used in conjunction with a lipofectin reagent to transfect a cured Huh7 cell line. Transfected cells were selected for with G418. After selection has occurred the stable cell lines were propagated, tested for luciferase activity, and RT-PCR with genotype specific primers (either 1a, 2a, 3a, or 4a). Stable cell lines containing the intergenotypic replicon were then fully sequenced and analyzed for proper expression of NS3, NS5A and NS5B proteins.
(§4) Drug titration analysis was performed using the luciferase replicon assay described herein.
as §1

[4] = in vitro; format: cell-based; details: human; GS4.1 cells, cellular viability
Method: For cytotoxicity evaluation, GS4.1 cells were treated with compounds as described above and cellular viability was monitored using the Cell Titer 96 AQeous One Solution Cell Proliferation Assay (Promega). CC50 values were determined from the % cytotoxicity versus concentration data with Tecan Magellan software as described above.

[5] = test system: HCV genotype 1a H77 strain subgenomic luciferase replicon (H1a-luc); assay: Luciferase replicon assay, genotype 1a; format: cell-based; details: Hepatitis C virus, read-out: EC50 1a
Method: as §4, §1

[6] = test system: H1a-luc or Zluc cells; assay: in vitro; format: cell-based, human; details: Table 1B, cellular viability
Method: (§5) For cytotoxicity evaluation, HPC cells were treated with compounds as described above in the absence of the genotype 2a virus and cellular viability was monitored using the Cell Titer 96 AQueous One Solution Cell Proliferation Assay (Promega). Plates were then read at 490 nm in a Victor^3V 1420 multilabel counter (Perkin Elmer) and CC50 concentrations were determined using Microsoft Excel and XLfit 4.1 software.
as §5, with “H1a-luc or Zluc” for “HPC”, “above” for “above in the absence of the genotype 2a virus”

[7] = test system: HCV genotype 2a; assay: Genotype 2a assay (NS5A-intergenotypic luciferase replicon / genotype 2a infectious virus assay); format: cell-based; details: Hepatitis C virus, read-out: EC50 2a
Excerpt: as §2, §3, §4
The genotype 2a infectious virus assay measures the ability of a test compound to inhibit HCV replication in cell culture after 5 days of treatment at the time of HCV genotype 2a virus infection of a permissive human hepatoma cell line (HPC cells). The inhibition of HCV replication was measured by quantification of HCV core protein expression by an enzyme-linked immunosorbent assay (ELISA). Briefly, HPC cells were grown in DMEM containing glucose, L-glutamine and sodium pyruvate, 10% FBS, 100 IU/mL penicillin, 100 μg/mL streptomycin, 2 mM GlutaMAX, and non-essential amino acids. GlutaMAX was obtained from Invitrogen, Corp.; all other media reagents were obtained from Mediatech, Inc. For dose-response testing, ninety-six-well plates were seeded with HPC cells at a density of 2.5×10^3 cells/well in a volume of 50 μL, and incubated at 37° C./5% CO2. Three hours after plating, 50 μL of ten 5-fold serial dilutions of compound and 100 μL of genotype 2a virus were added, and cell cultures were incubated at 37° C./5% CO2. In all cases, mock infected HPC cells served as negative control. At 16 hours post treatment and infection, the virus inoculum was removed by aspiration. The cultures were treated at the same final concentrations of drug diluted in media and incubated for 4 additional days at 37° C./5% CO2. Subsequently, the core ELISA was performed as follows. The plates were fixed for 90 seconds with acetone/methanol (1:1, v/v), washed three times with KPL wash solution (KPL, Inc.), blocked for 1 hr at room temperature with TNE buffer containing 10% FBS and then incubated for 2 hr at 37° C. with the anti-HCV core mouse monoclonal antibody (Thermo Scientific) diluted in the same buffer. After washing three times with KPL wash solution, the cells were incubated for 1 hr at 37° C. with an anti-mouse immunoglobulin G-peroxidase conjugate in TNE/10% FBS. After washing as described above, the reaction was developed with O-phenylenediamine (Invitrogen). The reaction was stopped after 30 min with 2 NH2SO4, and absorbance was read at 490 nm in a Victor^3V 1420 multilabel counter (Perkin Elmer) and EC50 concentrations were determined using Microsoft Excel and XLfit 4.1 software.
The HCV luciferase replicon assay measures the ability of a test compound to inhibit HCV replication in cell culture after 3 days of treatment in a human hepatoma cell line (Huh-7) bearing an HCV replicon containing a luciferase-neomycin phosphotransferase fusion gene. […]

[8] = test system: HCV genotype 4a NS5A within the 1b-replicon; assay: Luciferase replicon assay, NS5A-intergenotypic stable cell line genotype 4a; format: cell-based; details: Hepatitis C virus, read-out: EC50 4a
Excerpt: as §2, §3, §4, §1

| SMILES | EC50 [1] | EC50 [2] | EC50 [3] | CC50 [4] | EC50 [5] | CC50 [6] | EC50 [7] | EC50 [8] |
| --- | --- | --- | --- | --- | --- | --- | --- | --- |
| COC(=O)N[C@H](C(=O)N1CCC[C@H]1c1ncc(-c2ccc(-c3cc4sc(-c5cnc([C@@H]6CCCN6C(=O)[C@@H](NC(=O)OC)C(C)C)[nH]5)cc4s3)cc2)[nH]1)C(C)C [Compound A126, [(S)-1-((S)-2-{5-[4-(5-{2-[(S)-1-((S)-2-Methoxycarbonylamino-3-methyl-butyryl)-pyrrolidin-2-yl]-3H-imidazol-4-yl}-thieno[3,2-b]thiophen-2-yl)-phenyl]-1H-imidazol-2-yl}-pyrrolidine-1-carbonyl)-2-methyl-propyl]-carbamic acid methyl ester] | < 1 nM | < 0.1 nM | 1 to 10 nM | > 75000 nM | < 0.1 nM | > 75000 nM |  |  |
| COC(=O)N[C@H](C(=O)N1CCC[C@H]1c1ncc(-c2csc3c(-c4ccc5[nH]c([C@@H]6CCCN6C(=O)[C@@H](NC(=O)OC)C(C)C)nc5c4)csc23)[nH]1)C(C)C [Compound A173, ((S)-1-{(S)-2-[6-(6-{(S)-2-[1-((S)-2-methoxycarbonylamino-3-methyl-butyryl)-pyrrolidin-2-yl]-1H-imidazol-4-yl}-thieno[3,2-b]thiophen-3-yl)-1H-benzoimidazol-2-yl]-pyrrolidine-1-carbonyl}-2-methyl-propyl)-carbamic acid methyl ester] |  | < 0.1 nM | 1 to 10 nM |  | 10 to 100 nM | 10000 to 75000 nM | 1 to 10 nM | 1 to 10 nM |
| COC(=O)N[C@H](C(=O)N1CCC[C@H]1c1ncc(-c2ccc(-c3csc4c(-c5ccc6[nH]c([C@@H]7CCCN7C(=O)[C@@H](NC(=O)OC)C(C)C)nc6c5)csc34)cc2)[nH]1)C(C)C [Compound A171, [(S)-1-((S)-2-{4-[4-(6-{2-[(S)-1-((S)-2-methoxycarbonylamino-3-methyl-butyryl)-pyrrolidin-2-yl]-3H-benzoimidazol-5-yl}-thieno[3,2-b]thiophen-3-yl)-phenyl]-1H-imidazol-2-yl}-pyrrolidine-1-carbonyl)-2-methyl-propyl]-carbamic acid methyl ester] |  | < 0.1 nM | 1 to 10 nM |  | < 0.1 nM | > 75000 nM |  |  |
| COC(=O)N[C@H](C(=O)N1CCCC1c1nc(-c2cc3sc(-c4cnc([C@@H]5CCCN5C(=O)[C@@H](NC(=O)OC)C(C)C)[nH]4)cc3s2)c[nH]1)C(C)C (stereo partly shown) [Compound A101] |  | < 0.1 nM | 1 to 10 nM |  | 10 to 100 nM | > 75000 nM | 1 to 10 nM | 1 to 10 nM |

— patent US20120252721A1 (priority 2011, published 2012)
